Test results: the supplement of paper PMC6045584
± gives the standard deviation of the averaged measurements.

Key:
DOXORUBICIN = compound: COc1cccc2c1C(=O)c1c(O)c3c(c(O)c1C2=O)C[C@@](O)(C(=O)CO)C[C@@H]3O[C@H]1C[C@H](N)[C@H](O)[C@H](C)O1 [DOXORUBICIN]; assay: surviving fraction relative to DMSO-only wells; higher = less growth inhibition; details: exposure time: 5 days
Summary of the method: (§1)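 Viability values are CellTiter-Glo luminescence readings, given as surviving fraction against the median of DMSO-only wells. The readings were taken after 10 minutes at room temperature, following five days of continuous exposure to inhibitors at 0.5, 1, 5, 10, 50, 100, 500 and 1000 nM that began 24 hours after log-phase tumour cell lines were seeded at 250–500 cells per well in 384-well plates. Every line was screened three times and kept only if replicate Pearson r >0.7 and median Z' >0.3.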

FLUOROURACIL = compound: O=c1[nH]cc(F)c(=O)[nH]1 [FLUOROURACIL]; assay: as above; details: exposure time: 5 days
Summary of the method: as §1

Test System	surviving fraction (DOXORUBICIN; 0.5 nM)	surviving fraction (DOXORUBICIN; 1 nM)	surviving fraction (DOXORUBICIN; 5 nM)	surviving fraction (DOXORUBICIN; 10 nM)	surviving fraction (DOXORUBICIN; 50 nM)	surviving fraction (DOXORUBICIN; 100 nM)	surviving fraction (DOXORUBICIN; 500 nM)	surviving fraction (DOXORUBICIN; 1000 nM)	surviving fraction (FLUOROURACIL; 0.5 nM)	surviving fraction (FLUOROURACIL; 1 nM)	surviving fraction (FLUOROURACIL; 5 nM)	surviving fraction (FLUOROURACIL; 10 nM)	surviving fraction (FLUOROURACIL; 50 nM)	surviving fraction (FLUOROURACIL; 100 nM)	surviving fraction (FLUOROURACIL; 500 nM)	surviving fraction (FLUOROURACIL; 1000 nM)
SUM149 BREAST	1.01 ± 0.013	0.961 ± 0.13	0.401 ± 0.056	0.233 ± 0.025	0.186 ± 0.014	0.145 ± 0.0087	0.0277 ± 0.0031	0.0253 ± 0.00058	0.934 ± 0.029	0.969 ± 0.064	0.908 ± 0.028	0.909 ± 0.038	0.872 ± 0.071	0.902 ± 0.063	0.736 ± 0.069	0.597 ± 0.057
SUM149.B1*.S BREAST	1.03 ± 0.031	1.065 ± 0.0083	1.01 ± 0.043	0.931 ± 0.041	0.285 ± 0.0081	0.179 ± 0.014	0.068 ± 0.0038	0.0518 ± 0.0023	1.1 ± 0.044	1.06 ± 0.043	1.12 ± 0.028	1.04 ± 0.04	1.04 ± 0.064	0.962 ± 0.034	0.909 ± 0.03	0.812 ± 0.021
SUM159 BREAST	1.1 ± 0.14	1.08 ± 0.11	1.05 ± 0.11	0.964 ± 0.043	0.176 ± 0.045	0.173 ± 0.027	0.0397 ± 0.0021	0.039 ± 0.002	1.1 ± 0.024	1.07 ± 0.023	1.08 ± 0.027	1.06 ± 0.026	1.073 ± 0.0051	1.01 ± 0.012	1.03 ± 0.014	0.915 ± 0.01
SYO1 SYNOVIAL	0.944 ± 0.065	0.906 ± 0.017	0.39 ± 0.066	0.176 ± 0.05	0.0563 ± 0.015	0.0384 ± 0.0093	0.0205 ± 0.00087	0.0309 ± 0.0013	1.02 ± 0.012	0.989 ± 0.01	0.962 ± 0.029	0.974 ± 0.024	0.894 ± 0.016	0.872 ± 0.034	0.763 ± 0.034	0.616 ± 0.025
T47D BREAST	1.03 ± 0.03	1 ± 0.038	0.892 ± 0.018	0.673 ± 0.064	0.708 ± 0.021	0.518 ± 0.023	0.197 ± 0.033	0.0751 ± 0.0032	1.02 ± 0.03	1.03 ± 0.03	1 ± 0.0033	1.01 ± 0.03	1.02 ± 0.041	0.95 ± 0.04	0.855 ± 0.02	0.761 ± 0.028
U2OS BONE	1.04 ± 0.053	1.01 ± 0.015	0.86 ± 0.018	0.72 ± 0.05	0.606 ± 0.037	0.376 ± 0.013	0.04 ± 0.0017	0.0373 ± 0.0021	1.02 ± 0.021	1.04 ± 0.025	1.083 ± 0.0072	1.05 ± 0.05	1.01 ± 0.011	0.966 ± 0.083	0.843 ± 0.051	0.674 ± 0.043
VCAP PROSTATE	1.18 ± 0.094	0.982 ± 0.1	1.1 ± 0.073	0.51 ± 0.028	1.02 ± 0.052	0.291 ± 0.0036	0.0377 ± 0.0064	0.0397 ± 0.015	1.03 ± 0.11	1.06 ± 0.026	1.09 ± 0.044	1.22 ± 0.097	1.05 ± 0.077	0.998 ± 0.22	0.916 ± 0.17	0.939 ± 0.049
VP229 BREAST	1.18 ± 0.067	1.11 ± 0.14	1 ± 0.11	0.931 ± 0.022	0.835 ± 0.11	0.567 ± 0.027	0.569 ± 0.13	0.233 ± 0.056	1.08 ± 0.036	0.988 ± 0.05	1.1 ± 0.13	0.92 ± 0.16	0.905 ± 0.068	0.827 ± 0.062	0.773 ± 0.095	0.654 ± 0.18
YAMATO SYNOVIAL	1.1 ± 0.058	1.14 ± 0.058	0.963 ± 0.069	0.7417 ± 0.0035	0.388 ± 0.018	0.329 ± 0.03	0.258 ± 0.012	0.341 ± 0.016	1.2 ± 0.08	1.15 ± 0.056	1.3 ± 0.021		0.921 ± 0.061	0.829 ± 0.046	0.791 ± 0.053	0.654 ± 0.028
ZR751 BREAST	1.12 ± 0.095	1.08 ± 0.16	0.786 ± 0.074	0.846 ± 0.12	0.585 ± 0.047	0.361 ± 0.054	0.174 ± 0.018	0.0463 ± 0.00058	1.21 ± 0.13	1.26 ± 0.11	0.966 ± 0.051	1.12 ± 0.18	1.04 ± 0.12	1.1 ± 0.16	0.974 ± 0.072	0.81 ± 0.083
